Source: patent US8399480B2, “Hydroxymethyl pyrrolidines as beta 3 adrenergic receptor agonists” (Merck Sharp & Dohme Corp., priority 2008, dated 2013)

Each compound was assayed against T1, human β3 adrenergic receptor (Homo sapiens, UniProt P13945) (assay: Functional assay: cAMP production (LANCE TR-FRET) in CHO cells stably transfected with cloned β3 adrenergic receptor). Details: Table 4; human β3 functional activity; read-out: Human β Binding.
T1 construct: expressed in transfected cells; host or cells: Chinese hamster ovary (CHO) cells, stably transfected
T1 sequence (P13945 whole entry): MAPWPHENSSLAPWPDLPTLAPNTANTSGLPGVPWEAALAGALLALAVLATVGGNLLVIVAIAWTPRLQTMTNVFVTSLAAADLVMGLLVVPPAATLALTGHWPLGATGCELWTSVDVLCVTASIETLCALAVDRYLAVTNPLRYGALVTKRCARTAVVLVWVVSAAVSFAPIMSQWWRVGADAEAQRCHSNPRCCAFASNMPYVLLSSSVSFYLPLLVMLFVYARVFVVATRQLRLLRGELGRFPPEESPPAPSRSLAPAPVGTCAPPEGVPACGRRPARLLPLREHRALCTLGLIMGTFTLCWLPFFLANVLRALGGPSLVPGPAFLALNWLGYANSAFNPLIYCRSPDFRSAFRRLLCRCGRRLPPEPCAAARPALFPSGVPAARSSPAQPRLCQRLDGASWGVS
Type: cell-based
Description: Chinese hamster ovary (CHO) cells, stably transfected with the cloned β-adrenergic receptor (β1, β2 or β3) are harvested after 3 days of subculturing. Harvesting of cells is done with Enzyme-free Dissociation Media (Specialty Media). Cells are then counted and resuspended in assay buffer (Hank's Balanced salt solution supplemented with 5 mM HEPES, 0.1% BSA) containing a phosphodiesterase inhibitor (IBMX, 0.6 mM). The reaction is initiated by mixing 6,000 cells in 6 μL with 6 μL Alexa Fluor labeled cAMP antibody (LANCE™ kit) which is then added to an assay well containing 12 μL of compound (diluted in assay buffer to 2× final concentration). The reaction proceeds for 30 min at room temperature and is terminated by the addition of 24 μL detection buffer (LANCE™ kit). The assay plate is then incubated for 1 h at room temperature and time-resolved fluorescence measured on a Perkin Elmer Envision reader or equivalent. The unknown cAMP level is determined by comparing fluorescence levels to a cAMP standard curve.
The non-selective, full agonist β-adrenergic ligand isoproterenol is used at all three receptors to determine maximal stimulation. […] Data are analyzed using Microsoft Excel and Graphpad Prism or an internally developed data analysis software package.
Compound O=C(CN1CCOC1=O)Nc1ccc(C[C@@H]2CC[C@H]([C@H](O)c3ccccc3)N2)cc1 [Example 90] has an EC50 of 11 to 100 nM.
O=C(Cc1nnc[nH]1)Nc1ccc(C[C@@H]2CC[C@H]([C@H](O)c3ccccc3)N2)cc1 [Example 73] was tested, and the EC50 was 11 to 100 nM.
Compound O=C(Cn1nccn1)Nc1ccc(C[C@@H]2CC[C@H]([C@H](O)c3ccccc3)N2)cc1 [Example 81] has an EC50 of 11 to 100 nM.
Work on O=C(Cc1ccncc1)Nc1ccc(C[C@@H]2CC[C@H]([C@H](O)c3ccccc3)N2)cc1 [Example 45] yielded an EC50 of 1000 to 3000 nM.
In the case of Cc1nc(C)c(CC(=O)Nc2ccc(C[C@@H]3CC[C@H]([C@H](O)c4ccccc4)N3)cc2)s1 [Example 9], the EC50 is reported as 101 to 1000 nM.
O=C(Cn1ncc2ccccc21)Nc1ccc(C[C@@H]2CC[C@H]([C@H](O)c3ccccc3)N2)cc1 [Example 6] showed an EC50 of 1 to 10 nM.
In the case of Cc1nc(CC(=O)Nc2ccc(C[C@@H]3CC[C@H]([C@H](O)c4ccccc4)N3)cc2)no1 [Example 74], the EC50 is reported as 1 to 10 nM.
For O=C(Cc1nnc(-c2cc(Cl)cc(Cl)c2)[nH]1)Nc1ccc(C[C@@H]2CC[C@H]([C@H](O)c3ccccc3)N2)cc1 [Example 26], the EC50 was 101 to 1000 nM.
Compound O=C(Nc1ccc(C[C@@H]2CC[C@H]([C@H](O)c3ccccc3)N2)cc1)c1ccccc1CCc1ccccc1 [Example 30] has an EC50 of 101 to 1000 nM.
For O=C(Cn1nc(Cl)ccc1=O)Nc1ccc(C[C@@H]2CC[C@H]([C@H](O)c3ccccc3)N2)cc1 [Example 51], the EC50 was 1 to 10 nM.
O=C(Cc1c(F)cccc1F)Nc1ccc(C[C@@H]2CC[C@H]([C@H](O)c3ccccc3)N2)cc1 [Example 71] was tested, and the EC50 was 1 to 10 nM.
In the case of O=C(CN1CCSC1=O)Nc1ccc(C[C@@H]2CC[C@H]([C@H](O)c3ccccc3)N2)cc1 [Example 91], the EC50 is reported as 1 to 10 nM.
In the case of O=C(Cn1cnc2sccc2c1=O)Nc1ccc(C[C@@H]2CC[C@H]([C@H](O)c3ccccc3)N2)cc1 [Example 55], the EC50 is reported as 1 to 10 nM.
In the case of O=C(Nc1ccc(C[C@@H]2CC[C@H]([C@H](O)c3ccccc3)N2)cc1)C1CCCN1c1cc(Cl)cc(Cl)c1 (stereo partly shown) [Example 35], the EC50 is reported as 11 to 100 nM.
In the case of Cc1nc2c(CC(=O)Nc3ccc(C[C@@H]4CC[C@H]([C@H](O)c5ccccc5)N4)cc3)cccn2n1 [Example 97], the EC50 is reported as 1000 to 3000 nM.
With O=C(Cn1c(=O)[nH]c(=O)c2ccccc21)Nc1ccc(C[C@@H]2CC[C@H]([C@H](O)c3ccccc3)N2)cc1 [Example 57] the EC50 was 1 to 10 nM.
Compound O=C(Cn1ccc2ncccc2c1=O)Nc1ccc(C[C@@H]2CC[C@H]([C@H](O)c3ccccc3)N2)cc1 [Example 62] has an EC50 of 1 to 10 nM.
In the case of O=C(Cn1nnnc1-c1ccc(F)cc1)Nc1ccc(C[C@@H]2CC[C@H]([C@H](O)c3ccccc3)N2)cc1 [Example 29], the EC50 is reported as 11 to 100 nM.
Cc1nc(C)c(CC(=O)Nc2ccc(C[C@@H]3CC[C@H]([C@H](O)c4ccccc4)N3)cc2)s1 [Example 10] showed an EC50 of 1 to 10 nM.
O=C(Nc1ccc(C[C@@H]2CC[C@H]([C@H](O)c3ccccc3)N2)cc1)C1CCCN1c1cccc(I)c1 (stereo partly shown) [Example 39] gave an EC50 of 11 to 100 nM.

Same assay, conditions: Table 5; read-out: Human β3 Functional
Compound O=C(Nc1ccc(C[C@@H]2CC[C@H]([C@H](O)c3ccccc3)N2)cc1)C1CCc2cn[nH]c21 (single isomer, unassigned) [Example 136] has an EC50 of 11 to 100 nM.
O=C(Nc1ccc(C[C@@H]2CC[C@H]([C@H](O)c3ccccc3)N2)cc1)C1CCCc2ccnn21 (single isomer, unassigned) [Example 156] gave an EC50 of 1 to 10 nM.
For Nc1nc2c(s1)CCCC2C(=O)Nc1ccc(C[C@@H]2CC[C@H]([C@H](O)c3ccccc3)N2)cc1 (single isomer, unassigned) [Example 116], the EC50 was 1 to 10 nM.
O=C(Nc1ccc(C[C@@H]2CC[C@H]([C@H](O)c3ccccc3)N2)cc1)C1CCCc2ccccc21 (single isomer, unassigned) [Example 112] gave an EC50 of 11 to 100 nM.
With O=C(Nc1ccc(C[C@@H]2CC[C@H]([C@H](O)c3ccccc3)N2)cc1)C1CCc2ncnn21 (single isomer, unassigned) [Example 129] the EC50 was 11 to 100 nM.
With CC(C(=O)Nc1ccc(C[C@@H]2CC[C@H]([C@H](O)c3ccccc3)N2)cc1)c1cnccn1 (single isomer, unassigned) [Example 206] the EC50 was 1 to 10 nM.
COCCC(C(=O)Nc1ccc(C[C@@H]2CC[C@H]([C@H](O)c3ccccc3)N2)cc1)n1cccn1 (single isomer, unassigned) [Example 224] showed an EC50 of 11 to 100 nM.
For CC(C(=O)Nc1ccc(C[C@@H]2CC[C@H]([C@H](O)c3ccccc3)N2)cc1)n1nccn1 (single isomer, unassigned) [Example 178], the EC50 was 1 to 10 nM.
Work on CC(C(=O)Nc1ccc(C[C@@H]2CC[C@H]([C@H](O)c3ccccc3)N2)cc1)n1ncccc1=O (single isomer, unassigned) [Example 162] yielded an EC50 of 1 to 10 nM.
CC(C(=O)Nc1ccc(C[C@@H]2CC[C@H]([C@H](O)c3ccccc3)N2)cc1)n1nncc1C(N)=O (single isomer, unassigned) [Example 198] showed an EC50 of 11 to 100 nM.
Compound Cc1noc2c1CCC2C(=O)Nc1ccc(C[C@@H]2CC[C@H]([C@H](O)c3ccccc3)N2)cc1 (single isomer, unassigned) [Example 141] has an EC50 of 1 to 10 nM.
With CC(C(=O)Nc1ccc(C[C@@H]2CC[C@H]([C@H](O)c3ccccc3)N2)cc1)c1ccccn1 (single isomer, unassigned) [Example 205] the EC50 was 1 to 10 nM.
Compound O=C(Nc1ccc(C[C@@H]2CC[C@H]([C@H](O)c3ccccc3)N2)cc1)C1CCc2ccccc21 (single isomer, unassigned) [Example 110] has an EC50 of 11 to 100 nM.
Compound Cc1nnc2n1CCCC2C(=O)Nc1ccc(C[C@@H]2CC[C@H]([C@H](O)c3ccccc3)N2)cc1 (single isomer, unassigned) [Example 151] has an EC50 of 1 to 10 nM.
In the case of COC(=O)c1cn(C(C)C(=O)Nc2ccc(C[C@@H]3CC[C@H]([C@H](O)c4ccccc4)N3)cc2)nn1 (single isomer, unassigned) [Example 189], the EC50 is reported as 11 to 100 nM.
CC(C(=O)Nc1ccc(C[C@@H]2CC[C@H]([C@H](O)c3ccccc3)N2)cc1)n1cccnc1=O (single isomer, unassigned) [Example 160] gave an EC50 of 1 to 10 nM.

Same assay, conditions: Table 6; read-out: Human β3 Functional
Nc1nc2c(s1)CCCC2C(=O)Nc1ccc(CC2CCC(C(O)c3ccccc3)N2)cc1 (single isomer, unassigned) [Example 228] gave an EC50 of 1000 to 3000 nM.
Work on Cc1nc2c(s1)CCCC2C(=O)Nc1ccc(CC2CCC(C(O)c3ccccc3)N2)cc1 (single isomer, unassigned) [Example 232] yielded an EC50 of 1000 to 3000 nM.

Same assay, conditions: Table 7; β3AR-cAMP; read-out: Human β3 Functional
O=S(=O)(Nc1ccc(C[C@@H]2CC[C@H]([C@H](O)c3ccccc3)N2)cc1)c1cccc2ncccc12 [Example 238] showed an EC50 of 101 to 1000 nM.
With O=S(=O)(Cc1ccccn1)Nc1ccc(C[C@@H]2CC[C@H]([C@H](O)c3ccccc3)N2)cc1 [Example 248] the EC50 was 101 to 1000 nM.
Compound O=S(=O)(Nc1ccc(C[C@@H]2CC[C@H]([C@H](O)c3ccccc3)N2)cc1)c1cccc2cccnc12 [Example 237] has an EC50 of 101 to 1000 nM.
Compound O=S(=O)(Nc1ccc(C[C@@H]2CC[C@H]([C@H](O)c3ccccc3)N2)cc1)c1ccc(-n2cccn2)cc1 [Example 240] has an EC50 of 101 to 1000 nM.
In the case of O=S(=O)(Cc1cccnc1)Nc1ccc(C[C@@H]2CC[C@H]([C@H](O)c3ccccc3)N2)cc1 [Example 249], the EC50 is reported as 1000 to 3000 nM.

Same assay, conditions: Table 8; read-out: Human β3 Functional
With Cc1cc(C)nc(CNC(=O)Nc2ccc(C[C@@H]3CC[C@H]([C@H](O)c4ccccc4)N3)cc2)n1 [Example 256] the EC50 was 11 to 100 nM.
Compound O=C1OC2(CCN(C(=O)Nc3ccc(C[C@@H]4CC[C@H]([C@H](O)c5ccccc5)N4)cc3)CC2)c2cnccc21 [Example 259] has an EC50 of 101 to 1000 nM.

Same assay, conditions: Table 9; read-out: Human β^3 Functional
CC(NC(=O)c1ccccc1)C(=O)Nc1ccc(C[C@@H]2CC[C@H]([C@H](O)c3ccccc3)N2)cc1 (stereo partly shown) [Example 272] showed an EC50 of less than 1 nM.

Same assay, conditions: Table 10; β3AR-cAMP; read-out: Human β3 Functional
Work on O=C(Nc1ccc(CC2CCC(C(O)c3cccc(F)c3)N2)cc1)C1CCc2scnc21 (stereo not shown) [Example 279] yielded an EC50 of less than 1 nM.
O=C(Cn1ncccc1=O)Nc1ccc(C[C@@H]2CC[C@H]([C@H](O)c3cccc(F)c3)N2)cc1 [Example 281] showed an EC50 of 1 to 10 nM.

Same assay, conditions: Table 11; read-out: Human β3 Functional
Work on O=C(Cn1ncccc1=O)Nc1ccc(C[C@@H]2CC[C@H]([C@H](O)c3ccc(F)cc3)N2)cc1 [Example 287] yielded an EC50 of 1 to 10 nM.

Same assay, conditions: Table 12; read-out: Human β3 Functional
O=C(Nc1ccc(C[C@@H]2CC[C@H]([C@H](O)c3ccc(F)c(F)c3)N2)cc1)[C@@H]1CCc2scnc21 [Example 290] showed an EC50 of less than 1 nM.

Same assay, conditions: given as a range; cAMP, CHO cells; read-out: human β3 functional activity
Nc1nc(CC(=O)Nc2ccc(C[C@H]3CC[C@H]([C@H](O)c4ccccc4)N3)cc2Br)cs1 [Example 313, 2-(2-Amino-1,3-thiazol-4-yl)-N-[2-bromo-4-({(2R,5R)-5-[(R)-hydroxy(phenyl)methyl]pyrrolidin-2-yl}methyl)phenyl]acetamide] was tested, and the EC50 was 101 to 1000 nM.
CC(C(=O)Nc1ccc(C[C@@H]2CC[C@H]([C@H](O)c3cccc(F)c3)N2)cc1)c1cscn1 (single isomer, unassigned) [Example 275] was tested, and the EC50 was less than 1 nM.

Same assay, conditions: human β3 functional activity, shown as ranges; Table 13; read-out: Human β3 Functional
In the case of CC(C(=O)Nc1ccc(CC2CCC(C(O)c3cccc(Cl)c3)N2)cc1)c1cscn1 (single isomer, unassigned) [Example 302], the EC50 is reported as 1 to 10 nM.
In the case of O=C(Nc1ccc(CC2CCC(C(O)c3cccc(Cl)c3)N2)cc1)C1CCc2sc(Br)nc21 (single isomer, unassigned) [Example 299], the EC50 is reported as 11 to 100 nM.
In the case of O=C(Nc1ccc(C[C@@H]2CC[C@H]([C@H](O)c3cccc(Cl)c3)N2)cc1)[C@@H]1CCc2scnc21 [Example 297], the EC50 is reported as less than 1 nM.
